Measured values reported in patent publication US10550117B2, “2-azabicyclo[3.1.0]hexan-3-one derivatives and methods of use” (Genentech, Inc., priority 2016, dated 2020).

Columns and labels:
[1] = system: REL-A (p65) nuclear translocation in HUVEC; experiment: REL-A HUVEC nuclear translocation assay (TNF-α stimulated, high content imaging); type: cell-based; conditions: Homo sapiens, 2 ng/mL TNF-α
Protocol: (§1) (2) A second set of cell assays used primary human umbilical vein cells (HUVEC) sourced from Lonza to define the selectivity of NIK inhibitors toward inhibition of classical vs. non-classical NF-kB signaling using high content cellular imaging. For the p52 (non-classical NF-kB signaling) nuclear translocation assay, HUVEC were treated with different concentrations of compounds (0.2% DMSO final) in EBM-2 medium (LONZA) containing 2% fetal bovine serum and then stimulated with 300 ng/mL of an anti-lymphotoxin beta receptor antibody (R&D Systems) for 4.5 hours. In the REL-A nuclear translocation assay, HUVEC were incubated with compounds (0.2% DMSO final) for 4 hours 50 minutes in EBM-2 medium containing 2% fetal bovine serum before stimulating them with 2 ng/mL tumor necrosis factor (TNF)-α (R&D Systems) for 10 minutes. Cells were fixed with 4% paraformaldehyde, permeabilized by adding 0.1% Triton X-100 in phosphate buffered saline, and then were incubated with either 2 μg/mL anti-p52 antibody (Millipore) or 400 ng/mL anti-REL-A (p65) antibody (Santa Cruz Biotechnology). Finally, the cells were incubated with an Alexa488-labeled secondary antibody (Invitrogen) and DRAQ5 DNA stain (Biostatus). Imaging was carried out using an Opera reader (Perkin Elmer) and data were analyzed with the aid of Acapella software (Perkin Elmer). The p52 or REL-A translocation into the nucleus was quantified by the ratio of the nuclear to cytoplasmic signal intensity.

[2] = Liver microsome stability; type: in vitro ADME; conditions: for HLM CL (human liver microsome clearance): human liver microsomes; for stability in human liver microsomes versus the corresponding pyrrolidinone comparator compound: qualitative comparison
Protocol: Metabolic stability assays in liver microsomes are conducted with pooled female CD-1 mouse, male Sprague-Dawley rat, male beagle dog, male cynomolgus monkey, and mixed male and female human liver microsomal incubations. The general assay conditions are as follows. Incubation mixtures consisted of liver microsomes (0.5 mg of microsomal protein/ml) and the test compound (1.0 μM) with or without NADPH (1.0 mM) in the potassium phosphate buffer (100 mM; pH 7.4) with a final incubation volume of 0.25 ml. Reactions are initiated by the addition of NADPH or buffer and shaken in a water bath open to the air at 37° C. At times 0, 20, 40, and 60 min, aliquots (50 μl) are removed and added to termination mixtures (100 μl) containing acetonitrile and an internal standard. The samples are then centrifuged for 10 min at 2000 g. The supernatant (90 μl) is removed, combined with 180 μl of water, and analyzed by LC-MS/MS.
Metabolic stability of the test compounds were evaluated in human liver microsomes following known protocols described in Halladay, et al. Drug Metabol. Lett. 2007, 1:67-72.

Hepatocyte stability = type: in vitro ADME; conditions: human hepatocytes; for stability in the human hepatocyte assay versus the corresponding pyrrolidinone comparator compound: qualitative comparison
Protocol: General. Metabolic stability assays in hepatocytes are conducted using cryopreserved pooled female CD-1 mouse, male Sprague-Dawley rat, male beagle dog, male cynomolgus monkey, and mixed male and female human hepatocytes (CellzDirect). Vials of hepatocytes are thawed rapidly in a water bath set at 37° C. and then are diluted with Dulbecco's modified Eagle's medium (DMEM), pH 7.4. Cells are isolated by centrifugation, pooled, and resuspended in DMEM at 1.0 million viable cells/ml. Membrane integrity of the cells is assessed by trypan blue exclusion. The test compound is dissolved in dimethyl sulfoxide at a final concentration of 10 mM. This test compound stock is diluted further to 2 μM in DMEM (125 μl) before the addition of an equal volume of the 10^6 cells/ml cell suspension. The test compound (final incubation concentration of 1.0 μM with 0.1% dimethyl sulfoxide) and cells (final concentration of 0.5×10^6 cells/ml) are incubated at 37° C. in a 95% air/5% CO2 atmosphere for 3 h. Aliquots (50 μl) are removed at 0, 1, 2, and 3 hours and added to termination mixtures (100 μl) containing acetonitrile and an internal standard. The samples are then centrifuged for 10 min at 2000 g. The supernatant (90 μl) is removed, combined with 180 μl of water, and analyzed by LC-MS/MS.
Metabolic stability of the test compounds were evaluated also in human hepatocytes, following protocols described in Hallifax, et al. Drug Metabol. Disposition, 2005, 33:1852-1858.

[3] = target: nuclear factor-kappa B (NF-kB)-inducing kinase (NIK) (Homo sapiens (Human), UniProt Q99558); experiment: NIK enzyme inhibition assay (Transcreener ADP fluorescence polarization); type: biochemical; conditions: for Ki: purified NIK 0.5 nM, 10 μM ATP, Morrison equation, read-out: NIK ADP-FP Ki; for NIK enzyme inhibition, potency in words relative to the other stereoisomers: stereoisomers separated by chiral SFC, qualitative
Protocol: The ability of the nuclear factor-kappa B (NF-kB)-inducing kinase (NIK) to catalyze the hydrolysis of adenosine-5′-triphosphate (ATP) was monitored using the Transcreener ADP (adenosine-5′-diphosphate) assay (BellBrook Labs). […] Reactions were quenched by the addition of 20 mM 2,2′,2″,2′″-(ethane-1,2-diyldinitrilo)tetraacetic acid and 0.01% Brij 35. The tracer bound to the antibody was displaced by the ADP generated during the NIK reaction, which causes a decrease in fluorescence polarization that was measured by laser excitation at 633 nm with a Fluorescence Correlation Spectroscopy Plus reader (Evotec AG). Equilibrium dissociation constant (Ki) values for NIK inhibitors are calculated from plots of activity vs. inhibitor concentration using Morrison's quadratic equation that accounts for the potential of tight binding, and by also applying the conversion factor that accounted for competitive inhibition and the concentration of substrate used in the assay relative to its Michaelis constant (Km).

[4] = system: p52 (non-classical NF-kB signaling) nuclear translocation in HUVEC; experiment: p52 HUVEC nuclear translocation assay (anti-lymphotoxin beta receptor antibody stimulated); type: cell-based; conditions: Homo sapiens, 300 ng/mL anti-lymphotoxin beta receptor antibody
Protocol: as §1

[5] = system: p52 (NF-kB2) nuclear translocation in HeLa cells; experiment: p52 HeLa nuclear translocation assay (anti-lymphotoxin beta receptor antibody stimulated); type: cell-based; conditions: Homo sapiens, 100 ng/mL anti-lymphotoxin beta receptor antibody
Protocol: (§2) (3) A third set of cell assays are used to define the selectivity of NIK inhibitors toward inhibition of classical vs. non-classical NF-kB signaling and rely on quantification of the nuclear translocation of p52 (NF-kB2) and REL-A (p65) using high content cellular imaging. For the p52 (non-classical NF-kB signaling) nuclear translocation assay, HeLa cells are treated with different concentrations of compounds (0.2% DMSO final) in medium containing 10% fetal bovine serum and then stimulated with 100 ng/mL of an anti-lymphotoxin beta receptor antibody (R&D Systems) for 5 hours. In the REL-A nuclear translocation assay, HeLa cells are incubated with compounds (0.2% DMSO final) for 4.5 hours in medium containing 10% fetal bovine serum before stimulating them with 10 ng/mL tumor necrosis factor (TNF)-α (R&D Systems) for 30 minutes. Cells are fixed with 4% paraformaldehyde, permeabilized by adding 0.1% Triton X-100 in phosphate buffered saline, and then are incubated with either 2 μg/mL anti-p52 antibody (Millipore) or 400 ng/mL anti-REL-A (p65) antibody (Santa Cruz Biotechnology). Finally, the cells are incubated with an Alexa488-labeled secondary antibody (Invitrogen) and DRAQ5 DNA stain (Biostatus). Imaging is carried out using an Opera reader (Perkin Elmer) and data are analyzed with the aid of Acapella software (Perkin Elmer). The p52 or REL-A translocation into the nucleus is quantified by the ratio of the nuclear to cytoplasmic signal intensity. […] The test compounds have the corresponding inhibitory values (IC50) for NIK REL-A (p65) and p52 Translocation Assays as set forth in Table B2.

[6] = system: REL-A (p65) nuclear translocation in HeLa cells; experiment: REL-A HeLa nuclear translocation assay (TNF-α stimulated, high content imaging); type: cell-based; conditions: Homo sapiens, 10 ng/mL TNF-α
Protocol: as §2

Sequence of nuclear factor-kappa B (NF-kB)-inducing kinase (NIK) (Q99558 whole entry): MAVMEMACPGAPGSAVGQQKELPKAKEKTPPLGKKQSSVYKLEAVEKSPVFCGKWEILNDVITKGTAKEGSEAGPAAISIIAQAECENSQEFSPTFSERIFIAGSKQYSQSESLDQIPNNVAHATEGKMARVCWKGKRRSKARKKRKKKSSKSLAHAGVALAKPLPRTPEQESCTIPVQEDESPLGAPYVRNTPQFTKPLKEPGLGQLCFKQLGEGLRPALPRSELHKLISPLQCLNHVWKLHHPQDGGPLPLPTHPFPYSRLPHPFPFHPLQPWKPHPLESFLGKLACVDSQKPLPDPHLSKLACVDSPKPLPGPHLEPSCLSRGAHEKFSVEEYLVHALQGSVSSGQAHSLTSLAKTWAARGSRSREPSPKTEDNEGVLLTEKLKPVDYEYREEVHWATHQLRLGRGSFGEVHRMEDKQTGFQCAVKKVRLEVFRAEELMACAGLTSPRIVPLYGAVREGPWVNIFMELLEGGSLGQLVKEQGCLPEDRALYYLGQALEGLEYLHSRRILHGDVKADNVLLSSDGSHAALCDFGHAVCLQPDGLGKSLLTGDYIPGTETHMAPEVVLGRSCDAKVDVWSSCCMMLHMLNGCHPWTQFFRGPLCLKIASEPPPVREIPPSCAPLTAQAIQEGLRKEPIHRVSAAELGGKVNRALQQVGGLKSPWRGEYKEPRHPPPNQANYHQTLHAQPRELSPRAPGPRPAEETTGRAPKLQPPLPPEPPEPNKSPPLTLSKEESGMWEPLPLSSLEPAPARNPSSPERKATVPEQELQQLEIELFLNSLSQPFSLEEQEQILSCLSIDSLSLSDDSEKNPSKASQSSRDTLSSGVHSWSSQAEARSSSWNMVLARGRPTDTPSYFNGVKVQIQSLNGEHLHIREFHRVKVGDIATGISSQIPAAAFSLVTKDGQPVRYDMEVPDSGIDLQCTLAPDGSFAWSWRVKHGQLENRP

| SMILES | IC50 [1] [nM] | HLM CL (human liver microsome clearance) [2] [mL/min/kg] | stability in human liver microsomes versus the corresponding pyrrolidinone comparator compound [2] | Hep CL (human hepatocyte clearance) (Hepatocyte stability) [mL/min/kg] | stability in the human hepatocyte assay versus the corresponding pyrrolidinone comparator compound (Hepatocyte stability) | Ki [3] [nM] | NIK enzyme inhibition, potency in words relative to the other stereoisomers [3] | IC50 [4] [nM] | IC50 [5] [nM] | IC50 [6] [nM] |
| --- | --- | --- | --- | --- | --- | --- | --- | --- | --- | --- |
| CN1C(=O)[C@](O)(C#Cc2cccc(-n3nc(C(N)=O)c4cccnc43)c2)[C@H]2C[C@H]21 [Compound 1, 1-(3-(((1R,4R,5S)-4-hydroxy-2-methyl-3-oxo-2-azabicyclo[3.1.0]hexan-4-yl)ethynyl)phenyl)-1H-pyrazolo[3,4-b]pyridine-3-carboxamide] | > 5000 | 5.8 | better stability | 0.8 | better stability | 0.88 | most potent NIK enzyme inhibitor among the 4 stereoisomers | 55 | – | – |
| CN1C(=O)[C@](O)(C#Cc2cccc(-c3nc(C(N)=O)n4ccccc34)c2)[C@H]2C[C@H]21 [Compound 3] | > 5000 | 11 | better stability | 9.0 | better stability | – | – | 25 | – | – |
| COc1ccn2c(C(N)=O)nc(-c3cccc(C#C[C@]4(O)CCN(C)C4=O)c3)c2c1 [Compound C-4, reference compound] | > 5000 | 15 | – | 9.9 | – | – | – | – | 6.6 | > 1000 |
| CN1C(=O)[C@](O)(C#Cc2cccc(-c3nc(C(N)=O)c4ccccn34)c2)[C@H]2C[C@H]21 [Compound 5, 3-(3-(((1R,4R,5S)-4-hydroxy-2-methyl-3-oxo-2-azabicyclo[3.1.0]hexan-4-yl)ethynyl)phenyl)imidazo[1,5-a]pyridine-1-carboxamide] | > 5000 | 3.5 | better stability | 1.6 | better stability | 4.7 | most potent NIK enzyme inhibitor among the 4 stereoisomers | 3000 | – | – |
| CN1C(=O)[C@](O)(C#Cc2cccc(-n3nc(C(N)=O)c4cccnc43)c2)[C@@H]2C[C@@H]21 [Compound 2, 1-(3-(((1S,4R,5R)-4-hydroxy-2-methyl-3-oxo-2-azabicyclo[3.1.0]hexan-4-yl)ethynyl)phenyl)-1H-pyrazolo[3,4-b]pyridine-3-carboxamide] | > 5000 | 7.7 | – | 13 | – | 4.3 | second most potent NIK enzyme inhibitor among the 4 stereoisomers | 280 | – | – |
| CN1CC[C@@](O)(C#Cc2cccc(-c3nc(C(N)=O)n4ccccc34)c2)C1=O [Compound C-3] | > 5000 | – | – | – | – | – | – | – | 29.8 | > 20000 |
